Measurements taken from patent publication US11701369B2, “Polymeric bile acid derivatives inhibit Hepatitis B and D virus and NTCP transport” (Huahui Health Ltd., priority 2014, dated 2023).
“Also recorded” adds a separate entry of the source.

Assays:
[1] = system: HBV; assay: HBV infection assay on HepaRG cells (HBsAg and HBeAg ELISA); assay type: cell-based, Hepatitis B virus; details: HBsAg and HBeAg at 5 dpi
Experimental: FIG. 11 HepaRG cells were infected with HBV in the presence of indicated PBADs. The level of secreted HBsAg and HBeAg was detected by ELISA at 5 dpi.
The antiviral potency of PBADs is also repeatable on other HBV infection system (HepaRG) with similar inhibition profile. […] HBV infection was conducted in the presence of NQL028, NQL018, NQL029, NQL019 and NQL021, all of which were bis-ester based PBADs with different linkage length.

[2] = system: HBV; assay: HBV infection assay on HepG2-NTCP cells (secreted HBeAg by ELISA); assay type: cell-based, Hepatitis B virus; details: HepG2-NTCP cells, secreted HBeAg
Experimental: (§1) HBV and HDV infection assay. HepG2NTCP Cells were cultured in PMM for 12-24 hrs before infection, and then inoculated with 200 multiplicities of genome equivalents (mge) of HBV, or 500 mge of HDV in the presence of 5% PEG8000 in PMM at 37° C. for about 24 hrs. Chemicals to be tested were added to the cells as indicated in the specific assays. The inoculum was replenished by PMM post infection. The infections were detected at day 5 post infection (dpi).
ELISA assay for the detection of HBeAg and HBsAg. ELISA kits for HBeAg and HBsAg detection were from Wantai Pharm Inc. (Beijing, China). Supernatant from infected HepG2NTCP cells was collected on 2-5 days post infection. The secreted HBeAg and HBsAg in the culture medium was measured with a commercial kit from Wantai Pharm Inc (Beijing, China) by following the manufactory's instructions.

[3] = system: HDV; assay: HDV infection assay on HepG2-NTCP cells (intracellular delta antigen staining); assay type: cell-based, Hepatitis D virus
Experimental: as §1
Immunostaining assay. For HBV infection, infected cells were washed twice with PBS and fixed in 3.7% paraformaldehyde (PFA) at room temperature for 10 mins. Subsequently, cells were permeabilized with 0.5% Trition X-100/PBS for 10 mins at room temperature, blocked with 3% BSA at 37° C. for 1 hour, and followed by incubating with 5 μg/ml mouse mAb1C10 which recognizes HBcAg, and followed by staining with FITC-conjugated secondary antibody. Nucleus was stained with DAPI in blue. The stained cells were imaged with the fluorescence microscope (Nikon). For HDV infection, on 5 dpi, HDV infected cells were fixed with 100% methanol at room temperature for 10 mins, intracellular delta antigens were then stained with 5 μg/ml of FITC conjugated 4G5 and nucleus were stained with DAPI in blue. Images were collected by an Eclipse Ti Fluorescence Microscope (Nikon) and a representative picture is shown.

[4] = target: T1, NTCP (Homo sapiens, UniProt Q14973); assay: [3H] taurocholate uptake assay on HepG2-NTCP cells; assay type: cell-based; details: co-incubation assay, [3H] taurocholate, 10 min
T1 construct: expressed in transfected cells
T1 sequence (Q14973 1-349): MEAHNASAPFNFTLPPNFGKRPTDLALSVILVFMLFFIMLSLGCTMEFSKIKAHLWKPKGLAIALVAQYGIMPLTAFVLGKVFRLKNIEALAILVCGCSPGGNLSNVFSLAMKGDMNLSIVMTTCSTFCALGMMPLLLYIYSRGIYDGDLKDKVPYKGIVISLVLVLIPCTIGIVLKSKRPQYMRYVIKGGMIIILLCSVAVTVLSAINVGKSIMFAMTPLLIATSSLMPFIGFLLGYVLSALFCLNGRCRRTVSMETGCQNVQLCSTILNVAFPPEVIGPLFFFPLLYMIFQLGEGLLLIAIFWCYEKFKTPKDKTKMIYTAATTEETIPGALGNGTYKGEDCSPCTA
Experimental: [3H] substrate uptake assay. [3H]taurocholate uptake assay was conducted following a protocol as previously described(60). In general, HepG2-NTCP cells were cultured in PMM for 12-24 hrs, then were treated with or without indicated chemicals before uptake assay. For substrate uptake assay, cells were generally incubated with 0.5 μl (0.5 μCi) [3H]-taurocholate dissolved in Na+ Ringer's solutions for 10 mins at 37° C. with or without the presence of chemicals. Subsequently, cells were washed once by PBS and lysed by 100 μl of 1% TritonX-100 in H2O for 5 mins at room temperature. The lysate was transferred into liquid scintillation tube and mixed with 900 μl liquid scintillation cocktail (Ultima GOLD™ XR) (Perkin Elmer, USA). Liquid scintillation counting was performed on a Perkin Elmer 1450 LSC Liquid Scintillation Counter and Luminescence Counter.

[5] = system: HBV; assay: In vitro stability: incubation with HBV inocula before infection, HBeAg ELISA; assay type: cell-based, Hepatitis B virus; details: incubated with HBV inocula for different times before infection, HBeAg at 5 dpi
Experimental: FIG. 10 The influence of the linkage groups on the in vitro stability of PBADs. TUDCA, NQL018, NQL044, and NQL055 were incubated with HBV inocula of different times before viral infection, and present in the inocula during infection period. The level of secreted HBeAg was detected by ELISA at 5 dpi.
The in vitro stability of PBADs could PBADs could be enhanced by optimization of the linkage bond. We conducted stability analysis of several PBADs with similar structure but of different linkage. […] This indicates the in vitro and in vivo stability is to a large extent determined by the feature of the linkage groups.

C[C@H](CCC(=O)NCCS(=O)(=O)O)[C@H]1CC[C@H]2[C@@H]3[C@@H](O)CC4C[C@H](OC(=O)CCCCCC(=O)O[C@@H]5CC[C@@]6(C)C(C5)C[C@H](O)[C@H]5[C@@H]7CC[C@H]([C@H](C)CCC(=O)NCCS(=O)(=O)O)[C@@]7(C)CC[C@@H]56)CC[C@]4(C)[C@H]3CC[C@]12C (stereo in doubt) [NQL-019]
inhibition of HBV infection on HepaRG cells (in words) [1]: inhibited HBV infection

C[C@H](CCC(=O)NCCS(=O)(=O)O)[C@H]1CC[C@H]2[C@@H]3[C@@H](O)CC4C[C@H](OC(=O)CCC(=O)O[C@@H]5CC[C@@]6(C)C(C5)C[C@H](O)[C@H]5[C@@H]7CC[C@H]([C@H](C)CCC(=O)NCCS(=O)(=O)O)[C@@]7(C)CC[C@@H]56)CC[C@]4(C)[C@H]3CC[C@]12C (stereo in doubt) [NQL-028]
inhibition of HBV infection on HepaRG cells (in words) [1]: inhibited HBV infection

C[C@H](CCC(=O)NCCS(=O)(=O)O)[C@H]1CC[C@H]2[C@@H]3[C@@H](O)CC4C[C@H](OC(=O)CCCCC(=O)O[C@@H]5CC[C@@]6(C)C(C5)C[C@H](O)[C@H]5[C@@H]7CC[C@H]([C@H](C)CCC(=O)NCCS(=O)(=O)O)[C@@]7(C)CC[C@@H]56)CC[C@]4(C)[C@H]3CC[C@]12C (stereo in doubt) [NQL-029]
inhibition of HBV infection on HepaRG cells (in words) [1]: inhibited HBV infection

C[C@H](CCC(=O)NCCS(=O)(=O)O)[C@H]1CC[C@H]2[C@@H]3[C@@H](O)CC4CC5(CC[C@]4(C)[C@H]3CC[C@]12C)N=N5 (stereo partly shown) [3-Diz-TUDCA]
inhibition of HBV infection (in words) [2]: did not show significantly improved inhibitory efficiency over the natural monomeric TUDCA

CC(=O)O[C@@H]1CC[C@@]2(C)C(C1)C[C@H](O)[C@H]1[C@@H]3CC[C@H]([C@H](C)CCC(=O)NCCS(=O)(=O)O)[C@@]3(C)CC[C@@H]12 (stereo partly shown) [3-OAc-TUDCA]
inhibition of HBV infection (in words) [2]: did not show significantly improved inhibitory efficiency over the natural monomeric TUDCA

C[C@H](CCC(=O)NCCS(=O)(=O)O)[C@H]1CC[C@H]2[C@H]3[C@H](CC[C@]12C)[C@@]1(C)CC[C@@H](O)CC1CC31N=N1 (stereo partly shown) [7-Diz-TUDCA]
inhibition of HBV infection (in words) [2]: did not show significantly improved inhibitory efficiency over the natural monomeric TUDCA

C[C@H](CCC(=O)OCCCCC[C@@H]1SC[C@@H]2NC(=O)N[C@@H]21)[C@H]1CC[C@H]2C3[C@@H](O)CC4C[C@H](O)CC[C@]4(C)[C@H]3CC[C@]12C (stereo partly shown) [Biotin-UDCA]
inhibition of HBV infection (in words) [2]: did not show significantly improved inhibitory efficiency over the natural monomeric TUDCA

CCN(CCCN(C)C)C(=O)OC(=O)CC[C@@H](C)[C@H]1CC[C@H]2[C@@H]3[C@@H](O)CC4C[C@H](O)CC[C@]4(C)[C@H]3CC[C@]12C (stereo partly shown) [CA-UDCA, Carbamic-UDCA]
inhibition of HBV infection (in words) [2]: did not show significantly improved inhibitory efficiency over the natural monomeric TUDCA

C[C@H](CCC(=O)NCCCC1(C)N=N1)[C@H]1CC[C@H]2[C@@H]3[C@@H](O)CC4C[C@H](O)CC[C@]4(C)[C@H]3CC[C@]12C (stereo partly shown) [Diz-UDCA, Diz-Ursodeoxycholic acid]
inhibition of HBV infection (in words) [2]: did not show significantly improved inhibitory efficiency over the natural monomeric TUDCA

C[C@H](CCC(=O)NCCS(=O)(=O)O)[C@H]1CC[C@H]2[C@@H]3[C@@H](O)CC4C[C@@H](O)CC[C@]4(C)[C@H]3CC[C@]12C (stereo partly shown) [Iso-TUDCA, Iso-tauroursodeoxycholic acid]
inhibition of HBV infection (in words) [2]: did not show significantly improved inhibitory efficiency over the natural monomeric TUDCA

C[C@H](CCC(=O)NCCS(=O)(=O)O)[C@H]1CC[C@@H]2C3[C@@H](OC(=O)CC[C@@H](C)[C@H]4CC[C@@H]5C6[C@@H](CC[C@@]54C)[C@@]4(C)CC[C@H](O)CC4C[C@@H]6O)CC4C[C@@H](O)CC[C@]4(C)[C@@H]3CC[C@@]21C (stereo partly shown) [NQL-015]
inhibition of HDV infection (in words) [3]: high antiviral activity; also recorded: greatly improved potency | inhibition of NTCP substrate uptake (in words) [4]: significantly higher efficiency than that of TUDCA | inhibition of HBV infection (in words) [2]: high antiviral activity; also recorded: greatly improved potency

C[C@H](CCC(=O)NCCS(=O)(=O)O)[C@H]1CC[C@H]2[C@@H]3[C@@H](O)CC4CC(NC(=O)CCCC(=O)NC5CC[C@@]6(C)C(C5)C[C@H](O)[C@H]5[C@@H]7CC[C@H]([C@H](C)CCC(=O)NCCS(=O)(=O)O)[C@@]7(C)CC[C@@H]56)CC[C@]4(C)[C@H]3CC[C@]12C (stereo partly shown) [NQL-021]
inhibition of HBV infection on HepaRG cells (in words) [1]: inhibited HBV infection

C[C@H](CCC(=O)NCCS(=O)(=O)O)[C@H]1CC[C@H]2[C@@H]3[C@@H](O)CC4C[C@H](NC(=O)CCCC(=O)N[C@@H]5CC[C@@]6(C)C(C5)C[C@H](O)[C@H]5[C@@H]7CC[C@H]([C@H](C)CCC(=O)NCCS(=O)(=O)O)[C@@]7(C)CC[C@@H]56)CC[C@]4(C)[C@H]3CC[C@]12C (stereo partly shown) [NQL-044]
inhibition of HDV infection (in words) [3]: high antiviral activity | in vitro stability (antiviral potency after long incubation with the inoculum) [5]: much more stable as no significant potency decrease was observed | inhibition of HBV infection (in words) [2]: high antiviral activity

C[C@H](CCC(=O)NCCS(=O)(=O)O)[C@H]1CC[C@H]2[C@@H]3[C@@H](O)CC4C[C@H](OCc5cn([C@@H]6CC[C@@]7(C)C(C6)C[C@H](O)[C@H]6[C@@H]8CC[C@H]([C@H](C)CCC(=O)NCCS(=O)(=O)O)[C@@]8(C)CC[C@@H]67)nn5)CC[C@]4(C)[C@H]3CC[C@]12C (stereo partly shown) [NQL-055]
in vitro stability (antiviral potency after long incubation with the inoculum) [5]: much more stable as no significant potency decrease was observed

C[C@H](CCC(=O)NCCS(=O)(=O)O)[C@H]1CC[C@H]2[C@@H]3[C@@H](O)CC4C[C@H](O)CC[C@]4(C)[C@H]3CC[C@]12C (stereo partly shown) [TUDCA, Tauroursodeoxycholic acid, reference compound]
inhibition of HBV infection (in words) [2]: most potent one among all bile acid derivatives tested
